Experimental data taken from patent US10479784B2, “Substituted pyrazin-2-amines as inhibitors of ATR kinase” (Vertex Pharmaceuticals Incorporated, priority 2008, dated 2019).

Each compound was assayed against full-length ATR (Homo sapiens (Human), UniProt Q13535) (assay: ATR Inhibition Assay (radioactive-phosphate incorporation)). Conditions: read-out: ATR Ki.
Format: biochemical
Method in brief: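 Ki(app) was derived by non-linear regression of background-corrected initial rates of 33P incorporation into an 800 μM target peptide, read by phosphocellulose filter scintillation counting. Reaction conditions: 5 nM full-length ATR, 10 μM [γ-33P]ATP, pH 7.5 Tris buffer with MgCl2 and DTT, 25 °C, 10-min preincubation, 24 h run.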

Sequence of full-length ATR (Q13535 whole entry): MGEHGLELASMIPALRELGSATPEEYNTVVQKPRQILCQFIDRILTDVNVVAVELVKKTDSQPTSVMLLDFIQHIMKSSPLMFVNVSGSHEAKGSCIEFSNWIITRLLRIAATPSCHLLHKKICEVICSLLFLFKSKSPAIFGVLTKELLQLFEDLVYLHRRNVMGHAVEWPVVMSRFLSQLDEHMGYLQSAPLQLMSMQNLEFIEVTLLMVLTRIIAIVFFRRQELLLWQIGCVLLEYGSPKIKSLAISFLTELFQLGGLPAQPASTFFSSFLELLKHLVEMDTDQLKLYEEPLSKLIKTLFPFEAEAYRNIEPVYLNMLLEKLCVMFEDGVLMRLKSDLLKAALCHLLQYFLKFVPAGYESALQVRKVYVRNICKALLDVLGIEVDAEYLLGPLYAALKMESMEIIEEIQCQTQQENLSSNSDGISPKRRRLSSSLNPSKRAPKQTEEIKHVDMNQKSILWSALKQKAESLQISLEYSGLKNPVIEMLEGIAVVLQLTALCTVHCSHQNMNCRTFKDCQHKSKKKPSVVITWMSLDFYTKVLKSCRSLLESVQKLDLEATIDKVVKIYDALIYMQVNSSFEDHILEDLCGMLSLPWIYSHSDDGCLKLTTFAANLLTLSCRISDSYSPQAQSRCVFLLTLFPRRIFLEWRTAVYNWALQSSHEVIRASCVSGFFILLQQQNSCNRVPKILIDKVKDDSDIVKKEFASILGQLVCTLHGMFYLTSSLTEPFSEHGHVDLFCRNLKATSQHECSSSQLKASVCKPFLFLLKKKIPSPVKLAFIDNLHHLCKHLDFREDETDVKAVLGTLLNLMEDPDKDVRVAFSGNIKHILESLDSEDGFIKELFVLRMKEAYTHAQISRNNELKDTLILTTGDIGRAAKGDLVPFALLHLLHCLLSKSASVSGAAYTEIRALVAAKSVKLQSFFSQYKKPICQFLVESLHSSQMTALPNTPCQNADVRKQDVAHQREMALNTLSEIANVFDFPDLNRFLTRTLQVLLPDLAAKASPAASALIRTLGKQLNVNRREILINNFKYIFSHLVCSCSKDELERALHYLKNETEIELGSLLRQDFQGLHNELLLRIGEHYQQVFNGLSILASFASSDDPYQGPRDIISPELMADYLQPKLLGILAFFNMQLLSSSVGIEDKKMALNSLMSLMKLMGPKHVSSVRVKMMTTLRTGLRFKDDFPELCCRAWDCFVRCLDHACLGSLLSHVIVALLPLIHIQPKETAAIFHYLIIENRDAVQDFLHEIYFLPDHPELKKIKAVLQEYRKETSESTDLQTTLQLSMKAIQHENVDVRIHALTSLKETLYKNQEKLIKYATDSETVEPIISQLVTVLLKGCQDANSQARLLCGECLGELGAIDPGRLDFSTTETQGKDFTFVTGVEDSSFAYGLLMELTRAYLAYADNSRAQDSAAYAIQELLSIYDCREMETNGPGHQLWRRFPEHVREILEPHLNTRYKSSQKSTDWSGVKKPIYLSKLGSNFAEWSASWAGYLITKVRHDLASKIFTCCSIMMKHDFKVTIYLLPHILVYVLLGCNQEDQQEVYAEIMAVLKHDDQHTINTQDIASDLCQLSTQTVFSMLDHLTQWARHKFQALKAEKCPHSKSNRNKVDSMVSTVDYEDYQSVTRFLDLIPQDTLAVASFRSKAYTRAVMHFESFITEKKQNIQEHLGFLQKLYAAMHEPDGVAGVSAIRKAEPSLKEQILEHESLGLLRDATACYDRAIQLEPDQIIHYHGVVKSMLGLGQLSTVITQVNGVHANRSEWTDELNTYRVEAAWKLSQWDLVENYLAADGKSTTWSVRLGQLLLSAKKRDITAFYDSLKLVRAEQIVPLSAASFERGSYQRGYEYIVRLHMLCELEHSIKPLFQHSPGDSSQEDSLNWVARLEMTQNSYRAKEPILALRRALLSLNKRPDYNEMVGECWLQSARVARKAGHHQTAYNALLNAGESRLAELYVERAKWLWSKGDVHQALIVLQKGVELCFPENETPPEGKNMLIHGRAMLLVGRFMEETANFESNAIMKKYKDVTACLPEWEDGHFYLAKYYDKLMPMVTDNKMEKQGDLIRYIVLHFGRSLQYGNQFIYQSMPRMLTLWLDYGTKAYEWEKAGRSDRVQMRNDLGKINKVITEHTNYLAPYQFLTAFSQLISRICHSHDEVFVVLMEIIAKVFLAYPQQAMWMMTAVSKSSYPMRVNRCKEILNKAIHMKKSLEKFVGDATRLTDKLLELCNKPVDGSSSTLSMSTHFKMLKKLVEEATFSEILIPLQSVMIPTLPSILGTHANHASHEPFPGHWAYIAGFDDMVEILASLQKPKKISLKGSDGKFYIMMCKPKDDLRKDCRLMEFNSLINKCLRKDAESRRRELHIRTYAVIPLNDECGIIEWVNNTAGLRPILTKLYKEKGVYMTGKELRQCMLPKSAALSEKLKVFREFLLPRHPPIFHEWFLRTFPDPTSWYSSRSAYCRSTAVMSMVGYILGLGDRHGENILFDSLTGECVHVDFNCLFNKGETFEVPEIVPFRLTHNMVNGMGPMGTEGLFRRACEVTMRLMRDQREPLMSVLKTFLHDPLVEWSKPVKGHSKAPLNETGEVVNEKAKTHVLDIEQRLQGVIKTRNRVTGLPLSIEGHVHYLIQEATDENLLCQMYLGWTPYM

Row | Ki [nM] | Compound
1 | 10 to 100 | Cc1cccc(-c2nnc(-c3nc(-c4ccc(C(=O)N(C)C)cc4)cnc3N)o2)c1 [IA-237, 4-[5-amino-6-[5-(m-tolyl)-1,3,4-oxadiazol-2-yl]pyrazin-2-yl]-N,N-dimethyl-benzamide]
2 | ≤ 10 | CC(C)S(=O)(=O)c1ccc(-c2cnc(N)c(-c3nnc(-c4ccc(CO)cc4)o3)n2)cc1 [IA-238, [4-[5-[3-amino-6-(4-isopropylsulfonylphenyl)pyrazin-2-yl]-1,3,4-oxadiazol-2-yl]phenyl]methanol]
3 | 100 to 5000 | CC(C)S(=O)(=O)c1ccc(-c2cnc(N)c(-c3nnc(N4CCNCC4)o3)n2)cc1 [IA-239, 5-(4-isopropylsulfonylphenyl)-3-(5-piperazin-1-yl-1,3,4-oxadiazol-2-yl)pyrazin-2-amine]
4 | 100 to 5000 | CN(C)Cc1ccc(-c2cnc(N)c(-c3nnc(-c4ccc(CO)cc4)o3)n2)cc1 [IA-240, [4-[5-[3-amino-6-[4-(dimethylaminomethyl)phenyl]pyrazin-2-yl]-1,3,4-oxadiazol-2-yl]phenyl]methanol]
5 | ≤ 10 | C[S+]([O-])c1ccccc1-c1cnc(N)c(-c2nnc(-c3ccccc3)o2)n1 (stereo not shown) [IA-241, 5-(2-methylsulfinylphenyl)-3-(5-phenyl-1,3,4-oxadiazol-2-yl)pyrazin-2-amine]
6 | ≤ 10 | COc1ccccc1-c1nnc(-c2nc(-c3ccc(C(=O)N(C)C)cc3)cnc2N)o1 [IA-242, 4-[5-amino-6-[5-(2-methoxyphenyl)-1,3,4-oxadiazol-2-yl]pyrazin-2-yl]-N,N-dimethyl-benzamide]
7 | ≤ 10 | CC(C)S(=O)(=O)c1ccc(-c2cnc(N)c(-c3nnc(-c4ccc(CN(C)C)cc4)o3)n2)cc1 [IA-243, 3-[5-[4-(dimethylaminomethyl)phenyl]-1,3,4-oxadiazol-2-yl]-5-(4-isopropylsulfonylphenyl)pyrazin-2-amine]
8 | 100 to 5000 | CN(C)C(=O)c1ccccc1-c1cnc(N)c(-c2nnc(-c3ccccc3)o2)n1 [IA-244, 2-[5-amino-6-(5-phenyl-1,3,4-oxadiazol-2-yl)pyrazin-2-yl]-N,N-dimethyl-benzamide]
9 | 10 to 100 | Cc1ccc(-c2nnc(-c3nc(-c4ccc(C(=O)N(C)C)cc4)cnc3N)o2)s1 [IA-245, 4-[5-amino-6-[5-(5-methyl-2-thienyl)-1,3,4-oxadiazol-2-yl]pyrazin-2-yl]-N,N-dimethyl-benzamide]
10 | ≤ 10 | Cc1csc(-c2nnc(-c3nc(-c4ccc(C(=O)N(C)C)cc4)cnc3N)o2)c1 [IA-246, 4-[5-amino-6-[5-(4-methyl-2-thienyl)-1,3,4-oxadiazol-2-yl]pyrazin-2-yl]-N,N-dimethyl-benzamide]
11 | 10 to 100 | CC(=O)Nc1ccc(-c2cnc(N)c(-c3nnc(-c4ccccc4)o3)n2)cc1 [IA-247, N-[4-[5-amino-6-(5-phenyl-1,3,4-oxadiazol-2-yl)pyrazin-2-yl]phenyl]acetamide]
12 | ≤ 10 | CC(C)NCc1ccc(-c2nnc(-c3nc(-c4ccc(S(=O)(=O)C(C)C)cc4)cnc3N)o2)s1 [IA-248, 3-[5-[5-[(isopropylamino)methyl]-2-thienyl]-1,3,4-oxadiazol-2-yl]-5-(4-isopropylsulfonylphenyl)pyrazin-2-amine]

Second part, the compound before the results:

Row | Compound | Ki [nM]
13 | N#CCc1ccccc1-c1cnc(N)c(-c2nnc(-c3ccccc3)o2)n1 [IA-221, 2-[2-[5-amino-6-(5-phenyl-1,3,4-oxadiazol-2-yl)pyrazin-2-yl]phenyl]acetonitrile] | 100 to 5000
14 | CC(C)S(=O)(=O)c1ccc(-c2cnc(N)c(-c3nnc(-c4ccc(CN)cc4)o3)n2)cc1 [IA-222, 3-[5-[4-(aminomethyl)phenyl]-1,3,4-oxadiazol-2-yl]-5-(4-isopropylsulfonylphenyl)pyrazin-2-amine] | ≤ 10
15 | CN(C)C(=O)c1ccc(-c2cnc(N)c(-c3nnc(-c4ccnc(N)c4)o3)n2)cc1 [IA-223, 4-[5-amino-6-[5-(2-amino-4-pyridyl)-1,3,4-oxadiazol-2-yl]pyrazin-2-yl]-N,N-dimethyl-benzamide] | 10 to 100
16 | NCCSc1ccccc1-c1cnc(N)c(-c2nnc(-c3ccccc3)o2)n1 [IA-224, 5-(2-(2-aminoethylthio)phenyl)-3-(5-phenyl-1,3,4-oxadiazol-2-yl)pyrazin-2-amine] | 100 to 5000
17 | CC(C)S(=O)(=O)c1ccc(-c2cnc(N)c(-c3nnc(-c4ccc(CNCCN(C)C)cc4)o3)n2)cc1 [IA-225, N-[[4-[5-[3-amino-6-(4-isopropylsulfonylphenyl)pyrazin-2-yl]-1,3,4-oxadiazol-2-yl]phenyl]methyl]-N′,N′-dimethyl-ethane-1,2-diamine] | 10 to 100
18 | CNCc1csc(-c2nnc(-c3nc(-c4ccc(S(=O)(=O)C(C)C)cc4)cnc3N)o2)c1 [IA-226, 5-(4-isopropylsulfonylphenyl)-3-[5-[4-(methylaminomethyl)-2-thienyl]-1,3,4-oxadiazol-2-yl]pyrazin-2-amine] | ≤ 10
19 | CC(C)S(=O)(=O)c1ccc(-c2cnc(N)c(-c3nnc(N4CCCC(CN)C4)o3)n2)cc1 (stereo not shown) [IA-227, 3-[5-[3-(aminomethyl)-1-piperidyl]-1,3,4-oxadiazol-2-yl]-5-(4-isopropylsulfonylphenyl)pyrazin-2-amine] | 100 to 5000
20 | CC(C)S(=O)(=O)c1ccc(-c2cnc(N)c(-c3nnc(-c4ccc([C@H](C)N)cc4)o3)n2)cc1 [IA-228, 3-[5-[4-[(1S)-1-aminoethyl]phenyl]-1,3,4-oxadiazol-2-yl]-5-(4-isopropylsulfonylphenyl)pyrazin-2-amine] | ≤ 10
21 | CC(C)Sc1ccccc1-c1cnc(N)c(-c2nnc(-c3ccccc3)o2)n1 [IA-229, 5-(2-isopropylsulfanylphenyl)-3-(5-phenyl-1,3,4-oxadiazol-2-yl)pyrazin-2-amine] | 100 to 5000
22 | CSc1ccccc1-c1cnc(N)c(-c2nnc(-c3ccccc3)o2)n1 [IA-230, 5-(2-methylsulfanylphenyl)-3-(5-phenyl-1,3,4-oxadiazol-2-yl)pyrazin-2-amine] | 10 to 100
23 | CN(C)C(=O)c1ccc(-c2cnc(N)c(-c3nnc(-c4cccc(N)n4)o3)n2)cc1 [IA-231, 4-[5-amino-6-[5-(6-amino-2-pyridyl)-1,3,4-oxadiazol-2-yl]pyrazin-2-yl]-N,N-dimethyl-benzamide] | 10 to 100
24 | CC(C)S(=O)(=O)c1ccc(-c2cnc(N)c(-c3nnc(C4=CCNCC4)o3)n2)cc1 [IA-232, 5-(4-isopropylsulfonylphenyl)-3-[5-(1,2,3,6-tetrahydropyridin-4-yl)-1,3,4-oxadiazol-2-yl]pyrazin-2-amine] | 10 to 100
25 | CN(C)C(=O)c1ccc(-c2cnc(N)c(-c3nnc(-c4ccccc4C(F)(F)F)o3)n2)cc1 [IA-233, 4-[5-amino-6-[5-[2-(trifluoromethyl)phenyl]-1,3,4-oxadiazol-2-yl]pyrazin-2-yl]-N,N-dimethyl-benzamide] | 10 to 100
26 | CN(C)C(=O)c1ccc(-c2cnc(N)c(-c3nnc(-c4ccc(CN)cc4)o3)n2)cc1 [IA-234, 4-[5-amino-6-[5-[4-(aminomethyl)phenyl]-1,3,4-oxadiazol-2-yl]pyrazin-2-yl]-N,N-dimethyl-benzamide] | ≤ 10
27 | CC(C)S(=O)(=O)c1ccc(-c2cnc(N)c(-c3nnc(-c4ccccc4O)o3)n2)cc1 [IA-235, 2-[5-[3-amino-6-(4-isopropylsulfonylphenyl)pyrazin-2-yl]-1,3,4-oxadiazol-2-yl]phenol] | ≤ 10
28 | CC(C)S(=O)(=O)c1ccc(-c2cnc(N)c(-c3nnc(-c4ccc(CNCC(F)F)s4)o3)n2)cc1 [IA-236, 3-[5-[5-[(2,2-difluoroethylamino)methyl]-2-thienyl]-1,3,4-oxadiazol-2-yl]-5-(4-isopropylsulfonylphenyl)pyrazin-2-amine] | 10 to 100
